Read-outs that look alike come from different tables or passages of the source.
How the values were obtained:
[1] = target: T1, TAFIa (activated human TAFI) (Homo sapiens, UniProt Q96IY4); assay: Assay for TAFIa inhibition (Ki determination); assay type: biochemical
T1 sequence (Q96IY4 115-423): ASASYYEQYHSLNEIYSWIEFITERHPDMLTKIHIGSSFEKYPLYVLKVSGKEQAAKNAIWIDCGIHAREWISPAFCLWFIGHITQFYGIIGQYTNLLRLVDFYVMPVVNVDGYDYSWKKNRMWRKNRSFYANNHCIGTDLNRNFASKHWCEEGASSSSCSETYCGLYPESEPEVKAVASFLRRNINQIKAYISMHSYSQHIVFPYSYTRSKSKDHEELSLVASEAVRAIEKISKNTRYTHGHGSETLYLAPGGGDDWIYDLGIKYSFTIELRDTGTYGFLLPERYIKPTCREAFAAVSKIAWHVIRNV
Protocol: To determine the degree of TAFIa inhibition, compounds were incubated with activated TAFI, and the amount of inhibition expressed in terms of Ki.
Human TAFI (recombinant or purified) was activated by incubating 20 μl of stock solution (360 μg/ml) with 10 μl of human thrombin (10 NIH units/ml), 10 μl of rabbit thrombomodulin (30 μg/ml), 6 μl calcium chloride (50 mM) in 50 μL of 20 mM HEPES (N-[2-hydroxyethyl]piperazine-N-[2-ethanesulfonic acid]) buffer containing 150 mM sodium chloride and 0.01% TWEEN 80 (polyoxyethylene-sorbitan monooleate) pH 7.6 for 20 minutes at 22° C. At the end of the incubation period, thrombin was neutralized by the addition of 10 μL of PPACK (D-Phe-Pro-Arg chloromethyl ketone)(100 nM). TAFIa solution was stored on ice for 5 minutes and finally diluted with 175 μl of HEPES buffer.
A number of different dilutions of the test compound in water were made up. […] To each dilution was then added 20 μl furylacryloyl-alanyl-lysine (FAAL) at a standard concentration. Substrate turn over was measured by reading the absorbance of the reaction mixture at 330 nm every 15 seconds for 30 minutes. Reaction was performed at 24° C. and samples were mixed for 3 seconds prior to each absorbance reading.
A graph of % inhibition against test compound concentration was then plotted; from which was calculated the IC50 value. The Ki value may then be calculated using the Cheng-Prusoff equation.
For the first control, the assay was performed as above, but with 20 μl of water rather than a dilution of the test compound.

[2] = system: thrombi in the left circumflex (LCX) coronary artery; assay: Lysis of coronary artery thrombi by TAFIa inhibitor in conjunction with t-PA; assay type: in vivo, dogs; settings: for injured vessels patent at the end of the experiment: 8 dogs/group, all groups received t-PA
Description: The study was designed with 4 groups (8 dogs/group): • (i) aspirin pre-treatment/vehicle infusion; • (ii) no pre-treatment/vehicle infusion; • (iii) no pre-treatment/TAFIa inhibitor; and • (iv) aspirin pre-treatment/TAFIa inhibitor.
Thirty minutes after initiating vehicle or compound infusion a continuous electrical current was delivered to the lumen of the left circumflex (LCX) coronary artery to cause endothelial damage and stimulate the production of a thrombus. Thrombi were allowed to mature for 1 hour prior to attempting to lyse the thrombus and cause vessel reperfusion with t-PA. A total of 4 bolus injections of t-PA (each 0.45 mg/kg i.v.) were given sequentially at 15 minute intervals. Blood flow through the coronary artery was then monitored for a further 2 hours so as to assess vessel patency. Time to vessel occlusion, and reperfusion were measured and the quantity and quality of blood flow analysed post-vessel re-perfusion. In addition, the effect of treatment on surgical bleeding, activated clotting time, cutaneous bleeding and platelet aggregation was also assessed.

[3] = TAFIa, FAAL substrate, Ki calculated from IC50 using Cheng-Prusoff equation, read-out: Ki

| Structure (SMILES) | Ki [1, 3] [µM] | injured vessels patent at the end of the experiment [2] | other results |
| --- | --- | --- | --- |
| CCCn1cnc(CC(CCCCN)C(=O)O)c1 (racemic) [Example 3, (±)-6-Amino-2-[(1-n-propyl-1H-imidazol-4-yl)methyl]hexanoic acid] | 0.31 |  |  |
| CCCn1cnc(C[C@H](CCCN)C(=O)O)c1 [Example 7, (+)-(2S)-5-Amino-2-[(1-n-propyl-1H-imidazol-4-yl)methyl]pentanoic acid] |  | 8/8 | Ki [1]: 0.013 µM; blood flow post-reperfusion (FIG. 1) ([2]; dogs, t-PA 4 x 0.45 mg/kg i.v. boluses, comparison of treatment groups): far superior to tPA alone; proportion of animals in which flow was >75% of baseline at the end of the protocol ([2]; dogs, with t-PA, versus respective controls): significantly increased; period over which improvement in coronary blood flow was maintained ([2]; dogs, with t-PA, whole of the reperfusion period): 165 min |
| NCCN[C@@H](Cc1c[nH]cn1)C(=O)O [Example 11, (2S)-2-[(2-Aminoethyl)amino]-3-(1H-imidazol-4-yl)propanoic acid] | 0.344 |  |  |
| NCCN[C@@H](Cc1cn(Cc2cncs2)cn1)C(=O)O [Example 45, (2S)-2-[(2-Aminoethyl)amino]-3-[1-(1,3-thiazol-5-ylmethyl)-1H-imidazol-4-yl]propanoic acid] | 0.197 |  |  |
| CC(=O)Oc1ccccc1C(=O)O [aspirin, reference compound] |  | 1/8 |  |

— patent US6949577B2, “Pharmaceuticals” (Pfizer, Inc., priority 2000, dated 2005)
